Test results taken from patent US11731967B2, “Inhibitors of TRIM33 and methods of use” (Dana-Farber Cancer Institute, Inc., priority 2017, dated 2023).
Where two headings read alike, the source gives them in different places.

Legend:
[1] = target: T1, recombinant PHD-bromodomain module of TRIM33 (Homo sapiens, UniProt Q9UPN9); test: AlphaScreen binding assay, TRIM33 with biotinylated H3K9me3K18ac peptide
T1 construct: rows headed: TRIM33 modulating activity; unit not given
T1 sequence (Q9UPN9 1-1127): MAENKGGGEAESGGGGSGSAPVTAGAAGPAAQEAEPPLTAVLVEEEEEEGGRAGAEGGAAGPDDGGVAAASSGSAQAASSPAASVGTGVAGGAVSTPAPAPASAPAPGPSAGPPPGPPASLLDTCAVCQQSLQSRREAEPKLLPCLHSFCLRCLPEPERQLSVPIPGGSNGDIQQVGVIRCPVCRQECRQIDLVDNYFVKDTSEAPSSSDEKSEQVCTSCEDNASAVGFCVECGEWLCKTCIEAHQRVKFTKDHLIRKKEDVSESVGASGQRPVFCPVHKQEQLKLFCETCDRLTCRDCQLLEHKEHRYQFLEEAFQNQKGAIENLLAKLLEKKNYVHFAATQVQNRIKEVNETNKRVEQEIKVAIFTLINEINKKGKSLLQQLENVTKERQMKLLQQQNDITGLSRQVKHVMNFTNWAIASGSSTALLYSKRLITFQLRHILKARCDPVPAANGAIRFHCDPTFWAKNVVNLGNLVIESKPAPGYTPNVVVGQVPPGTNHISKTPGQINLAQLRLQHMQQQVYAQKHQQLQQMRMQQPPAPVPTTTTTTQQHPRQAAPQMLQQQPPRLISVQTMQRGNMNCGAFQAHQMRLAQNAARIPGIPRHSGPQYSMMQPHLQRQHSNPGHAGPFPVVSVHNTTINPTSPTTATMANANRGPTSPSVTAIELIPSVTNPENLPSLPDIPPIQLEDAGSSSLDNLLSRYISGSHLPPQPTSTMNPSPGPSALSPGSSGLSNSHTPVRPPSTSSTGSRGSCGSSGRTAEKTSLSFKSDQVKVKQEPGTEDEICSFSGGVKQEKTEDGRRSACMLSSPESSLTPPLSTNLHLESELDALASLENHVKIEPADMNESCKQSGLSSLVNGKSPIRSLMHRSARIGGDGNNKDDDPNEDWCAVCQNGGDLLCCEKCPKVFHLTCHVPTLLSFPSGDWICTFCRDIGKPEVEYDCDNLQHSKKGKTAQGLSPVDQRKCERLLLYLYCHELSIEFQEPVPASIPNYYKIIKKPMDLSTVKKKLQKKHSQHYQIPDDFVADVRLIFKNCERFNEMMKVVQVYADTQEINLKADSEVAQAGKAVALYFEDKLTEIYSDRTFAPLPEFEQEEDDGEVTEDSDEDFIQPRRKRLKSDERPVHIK
Description: (§1) The IC50 or EC50 of the compound of the present application can be determined by various methods known in the art. For example, the IC50 or EC50 of the compound of the present application can be measured by an AlphaScreen assay, as described herein (see FIG. 1).
(§2) A compound of the present application can be tested for its TRIM33 and/or TRIM24 activity with AlphaScreen Assay illustrated in FIG. 1.
(§3) Additionally, a second AlphaScreen® binding assay for TRIM24 as counter-screening assay for selectivity of TRIM33 over TRIM24 was developed. A focused compound libraries for TRIM33 inhibitor development was designed and synthesized using the design principle that is to connect the bromodomain binding motif/fragment to proper chemical scaffold via multi-component reactions, such as Groebke-Blackburn-Bienaymé (GBB) coupling reaction, to establish chemically bias library.
(§4) With multiple libraries synthesized (˜400 compounds) as described above, compounds were screened against TRIM33 and TRIM24 by AlphaScreen to establish structure activity relationship (SAR).

[2] = test system: recombinant PHD-bromodomain module of TRIM33; test: as above; settings: compounds shown in Table 2a
Description: as §1, §2, §3, §4

[3] = target: T2, TRIM24 (Homo sapiens, UniProt O15164); test: AlphaScreen binding assay for TRIM24 (counter-screening assay)
T2 sequence (O15164 1-1050): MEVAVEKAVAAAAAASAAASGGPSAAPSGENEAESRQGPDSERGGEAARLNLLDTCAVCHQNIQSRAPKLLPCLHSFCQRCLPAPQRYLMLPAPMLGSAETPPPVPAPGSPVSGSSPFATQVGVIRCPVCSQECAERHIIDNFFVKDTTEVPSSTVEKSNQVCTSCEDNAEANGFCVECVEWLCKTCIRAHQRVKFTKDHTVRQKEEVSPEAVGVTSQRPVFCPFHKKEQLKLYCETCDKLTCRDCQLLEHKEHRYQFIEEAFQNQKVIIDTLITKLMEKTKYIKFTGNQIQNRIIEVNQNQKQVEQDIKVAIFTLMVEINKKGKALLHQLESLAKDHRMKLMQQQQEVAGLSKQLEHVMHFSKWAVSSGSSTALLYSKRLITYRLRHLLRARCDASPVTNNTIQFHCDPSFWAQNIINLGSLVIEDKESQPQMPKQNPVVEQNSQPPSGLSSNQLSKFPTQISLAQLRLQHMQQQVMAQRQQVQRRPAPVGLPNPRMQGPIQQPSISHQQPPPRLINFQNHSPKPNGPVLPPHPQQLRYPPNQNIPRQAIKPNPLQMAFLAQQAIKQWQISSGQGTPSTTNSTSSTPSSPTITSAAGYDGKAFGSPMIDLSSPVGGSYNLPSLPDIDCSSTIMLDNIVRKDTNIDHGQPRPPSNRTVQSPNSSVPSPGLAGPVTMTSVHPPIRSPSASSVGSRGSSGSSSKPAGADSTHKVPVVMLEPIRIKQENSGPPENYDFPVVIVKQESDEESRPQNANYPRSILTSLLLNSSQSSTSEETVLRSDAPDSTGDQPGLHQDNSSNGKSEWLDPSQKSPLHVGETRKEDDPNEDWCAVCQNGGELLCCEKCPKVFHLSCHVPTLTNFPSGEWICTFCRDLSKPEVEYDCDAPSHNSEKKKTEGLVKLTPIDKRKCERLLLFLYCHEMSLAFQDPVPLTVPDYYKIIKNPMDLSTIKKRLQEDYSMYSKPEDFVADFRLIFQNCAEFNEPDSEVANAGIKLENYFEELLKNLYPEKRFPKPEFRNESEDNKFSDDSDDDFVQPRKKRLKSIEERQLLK
Description: as §2, §3, §4

[4] = compounds shown in Table 2a, called TRIM33 IC50 in title of Table 5, unit inferred, read-out: TRIM33 modulating activity
[5] = compounds shown in FIG. 14A (Table 8), read-out: TRIM 33 IC50
[6] = compounds shown in FIG. 14A (Table 8), read-out: TRIM 24 IC50
[7] = compounds with R7/R7′ shown in FIG. 11A (Table 6), read-out: IC50 TRIM33
[8] = compounds with R7/R7′ shown in FIG. 11A (Table 6), read-out: IC50 TRIM24
[9] = compounds shown in FIG. 13A (Table 7), read-out: TRIM 33 IC50
[10] = compounds shown in FIG. 13A (Table 7), read-out: TRIM 24 IC50

| Compound | IC50 [1, 4] [µM] | Ratio of TRIM24 IC50 over TRIM33 IC50 [2] | other results |
| --- | --- | --- | --- |
| COCCNc1c(-c2ccc3nccn3c2)nc2ccc(C(=O)OC)cn12 [Compound G3] | 357 | 78.61 |  |
| COc1ccc(CCNc2c(-c3c[nH]c(C)n3)nc3ccc(Br)cn23)cc1OC [Compound E8] | 3.46 | 18.38 |  |
| CCCOc1ccn2c(C(C)=O)cc(-c3nc4ccc(C(=O)OC)cn4c3NC3CCCCC3)c2c1 [Compound H1] | 32.6 | 7.82 |  |
| COc1ccc(CCNc2c(-c3nc(C)n4ccccc34)nc3ccccn23)cc1OC [pck-9295-173] |  |  | IC50 [1, 5]: 44.3 µM; IC50 [3, 6]: 9440 nM |
| CCCOc1ccn2c(C(C)=O)cc(-c3ccccc3S(C)(=O)=O)c2c1 [GS-A, reference compound] | 50.9 |  |  |
| Brc1ccc2nc(-c3ccc4nccn4c3)c(NC3CCCCC3)n2c1 [Compound G7] | 121 | 0.83 |  |
| Cc1sc2c(c1C)C(c1ccc(Cl)cc1)=N[C@@H](CC(=O)NCCCCCCCCNC(=O)COc1cccc3c1C(=O)N(C1CCC(=O)NC1=O)C3=O)c1nnc(C)n1-2 (stereo partly drawn) [dBET6, reference compound] |  |  | IC50 [1, 7]: 4.69 µM; IC50 [3, 8]: 1960 nM |
| COCCNc1c(-c2c[nH]c(C)n2)nc2cnccn12 [Compound A9] | 286 | 321.31 |  |
| CCCOc1ccn2c(C(C)=O)cc(-c3nc4ccc(C(=O)OC)cn4c3NCCc3ccc(OC)c(OC)c3)c2c1 [Compound H2] | 12.2 | 463.20 |  |
| COC(=O)c1ccc2nc(-c3nc[nH]c3C)c(NCCN3CCOCC3)n2c1 [pck-9295-060] |  |  | IC50 [1, 5]: 1.93 µM; IC50 [3, 6]: 308 nM |
| CCCOc1cc(OCCCCN(C)C)cc(Oc2cc3c(cc2NS(=O)(=O)c2ccc(OC)c(OC)c2)n(C)c(=O)n3C)c1 [IACS9571, reference compound] | 10.6 |  | IC50 [1, 5]: 6.32 µM; IC50 [1, 7]: 13.4 µM |
| COc1ccc(CCNc2c(-c3nc[nH]c3C)nc3cnccn23)cc1OC [Compound B8] | 44.2 | 1276.41 | IC50 [1, 7]: 0.283 µM; IC50 [3, 8]: 225 nM |
| CC(C)(C)Nc1c(-c2c(O)ccc3ccccc23)nc2ccccn12 [pck-9295-029] |  |  | IC50 [1, 9]: 7.45 µM; IC50 [3, 10]: 7760 nM |
| CCCOc1ccn2c(C(C)=O)cc(-c3nc4cnccn4c3NCCOC)c2c1 [Compound D9] | 138 | 20.66 |  |
| COCCNc1c(-c2ccco2)nc2ccc(C(=O)OC)cn12 [pck-9295-032] |  |  | IC50 [1, 9]: 21.8 µM |
| COc1ccc(CCNc2c(-c3cn(S(=O)(=O)c4ccc(C)cc4)c4ccccc34)nc3ccccn23)cc1OC [pck-9295-174] |  |  | IC50 [1, 5]: 0.553 µM; IC50 [3, 6]: 584 nM |
| COCCNc1c(-c2nc[nH]c2C)nc2ccc(C(=O)OC)cn12 [Compound F3] | 44 | 11.61 |  |

| Compound | IC50 [1, 4] [µM] | Ratio of TRIM24 IC50 over TRIM33 IC50 [2] | other results |
| --- | --- | --- | --- |
| Cc1[nH]cnc1-c1nc2ccc(Br)cn2c1NCCN1CCOCC1 [Compound F10] | 26.2 | 4.48 |  |
| COc1ccc(Nc2c(-c3c[nH]c(C)n3)nc3ccc(Br)cn23)cc1 [pck-9295-016] |  |  | IC50 [1, 9]: 0.538 µM; IC50 [3, 10]: 818 nM |
| Brc1ccc2nc(-c3ccc4nccn4c3)c(NCCN3CCOCC3)n2c1 [Compound G10] | 214 | 6.43 |  |
| Cc1[nH]cnc1-c1nc2ccccn2c1NCCN1CCOCC1 [pck-9295-013] |  |  | IC50 [1, 9]: 3.78 µM; IC50 [3, 10]: 746 nM |
| CCOC(=O)CNc1c(-c2ccco2)nc2ccc(C(=O)OC)cn12 [pck-9295-035] |  |  | IC50 [1, 9]: 10.8 µM; IC50 [3, 10]: 5250 nM |
| COc1ccc(CCNc2c(-c3c[nH]c(C)n3)nc3ccccn23)cc1OC [Compound A2] | 1.36 | 32.77 |  |
| COc1ccc(CCNc2c(-c3c[nH]c(C)n3)nc3cnccn23)cc1OC [Compound A8] | 269 |  |  |
| COC(=O)c1ccc2nc(-c3cn(S(=O)(=O)c4ccc(C)cc4)c4ccccc34)c(NCc3ccccc3)n2c1 [pck-9295-175] |  |  | IC50 [1, 5]: 0.32 µM; IC50 [3, 6]: 415 nM |
| Cc1nc[nH]c1-c1nc2ccc(C(=O)NN)cn2c1NCCN1CCOCC1 [pck-9295-134] |  |  | IC50 [1, 5]: 1.29 µM; IC50 [3, 6]: 304 nM |
| COCCNc1c(-c2nc[nH]c2C)nc2ccc(Br)cn12 [Compound F9] | 37 | 3.62 |  |
| COc1ccc(Nc2c(-c3nc[nH]c3C)nc3ccccn23)cc1 [pck-9295-014] |  |  | IC50 [1, 9]: 0.641 µM; IC50 [3, 10]: 356 nM |
| COC(=O)c1ccc2nc(-c3nc[nH]c3C)c(NCCc3ccc(OC)c(OC)c3)n2c1 [Compound F2] | 12.6 | 29.84 |  |
| CCCOc1ccn2c(C(C)=O)cc(-c3nc4ccc(C(=O)OC)cn4c3NCCOC)c2c1 [Compound H3] | 77 | 37.43 |  |
| COc1ccc(CCNc2c(-c3ccc4nccn4c3)nc3ccccn23)cc1OC [Compound C2] | 24.9 | 60.92 |  |
| COC(=O)c1ccc2nc(-c3nc[nH]c3C)c(NC3CCCCC3)n2c1 [Compound F1] | 18.1 | 7.89 |  |
| Cc1[nH]cnc1-c1nc2cnccn2c1NC1CCCCC1 [Compound B7] | 116 | 0.78 |  |
